Here are results for 2 compounds from article PMC11443414 (RSC Advances, 2024).

The target in experiment [1] is T1, urease subunit gamma (UreA) (Staphylococcus aureus, UniProt Q6GEE6).
T1 sequence (Q6GEE6 1-100): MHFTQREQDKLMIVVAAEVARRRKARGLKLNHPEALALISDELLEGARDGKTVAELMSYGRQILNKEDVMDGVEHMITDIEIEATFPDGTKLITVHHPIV
The experiment can be described thus: DSF titration. The experiment is classed as binding.

Experiment [2] has as its target T1, urease subunit gamma (UreA). The experiment is classed as binding.

Structures can show the parent of a compound that is named as a salt.

The compound `O=C(O)c1cccnc1` [compound 11, Nicotinic acid] displayed a Kd in experiment [1] of 70 mM.
`CCOc1ccc(/C=C2\NCCc3cc(OCC)c(OCC)cc32)cc1OCC` [compound 2, Drotaverine HCl]: the “STD-NMR (individual, group epitope mapping); DSF Tm shift” value in experiment [2] is reported as “Its GEM analysis indicated that CH2-18 received the highest saturation from the protein”.

What is called Kd is the concentration at which binding is half-saturated. A higher Kd goes with weaker binding.
